Experimental data published in patent US8841413B2, “Antidiabetic compounds” (Cadila Healthcare Limited, priority 2006, dated 2014).

Assays:
[1] = target: DPP IV (Homo sapiens, UniProt P27487); assay: Stability against DPP IV enzyme; format: in vitro ADME; details: for % degradation in 24 h when incubated with DPP-IV enzyme: 2 μM, 37° C.
Summary of the method: (§1)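 Acidic quench (10% v/v TFA/H2O) preceded reversed-phase chromatography monitored at 206 nm, with fractions confirmed by ESI-MS.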

[2] = Stability in human plasma; format: in vitro ADME; details: for half-life (t1/2) in human plasma / % degradation in 24 h when incubated with human plasma: 2 μM, 37° C.
Summary of the method: as §1

[3] = Stability against liver microsomes; format: in vitro ADME, human; details: for % degradation in 24 h when incubated with liver microsomes: 2 μM, 37° C.; for half-life at 2 μM: human, human liver microsomes, pH 7.8, 37° C., read-out: half-life (t1/2) with liver microsomes
Summary of the method: as §1

[4] = target: T1, human glucagon receptor (Homo sapiens, UniProt P47871); assay: In vitro human glucagon antagonist activity (inhibition of cAMP production), CHO/human glucagon R cells; format: cell-based
T1 construct: The full-length cDNA was cloned in pcDNA3.1(Invitrogen); expressed in transfected cells
Method: CHO cells were grown in Ham's F12 medium containing L-Glutamine (2 mM), HEPES (25 mM), NaHCO3 (1.1 g/L) and supplemented with newborn Calf Serum (NBCS; 10%), Penicillin (50 U/ml (v/v)) and Streptomycin (50 ug/ml (v/v)). Cells were split every 3 days 1:8.
The full-length cDNA was cloned in pcDNA3.1(Invitrogen). […] Clones expressing the receptor were generated by G418 (800 μg/ml active, Sigma) selection. The stable clones were thereafter maintained at 500 ug/ml (G418). The selected clone was used between passages 9-25 for cAMP assays.
The trypsin was inactivated using Ham's F12 medium containing 10% NBCS and the cells were suspended in 2 ml of complete medium. […] The medium was aspirated off from the 12 well plate and the cells were washed once using Ham's F12 (plain). […] After the incubation; the medium was removed and cells were washed once with plain Ham's F12. Subsequently, the cells were lysed by adding 500 ul of ice cold 0.1 N HCl to each well and shaking for 30 minutes at 200 rpm. The cells were then scrapped, the lysate was collected in micro centrifuge tubes and centrifuged at 12000 rpm for 10 min to remove the debris. 300 ul of supernatant from each micro-centrifuge tube was then removed into a glass tube and dried under N2 for 30 min, for cAMP estimation. The total cAMP was estimated from the sample according to the manufacturer's protocol using Cyclic AMP immunoassay kit (R&D systems, Minneapolis: MN). The remaining supernatant is used to determine the protein concentration using micro BCA (Sigma). Data is calculated as percent of control (Vehicle: water) and expressed as Mean+SD.

[5] = Stability in simulated gastric fluid; format: in vitro ADME; details: 37° C., pH 1.5, pepsin; for half-life at 2 μM: simulated gastric fluid with pepsin, read-out: half-life (t1/2) in simulated gastric fluid
Summary of the method: as §1

[6] = Stability in simulated intestinal fluid; format: in vitro ADME; details: 37° C.; for half-life at 2 μM: simulated intestinal fluid, pH 7.5, read-out: half-life (t1/2) in simulated intestinal fluid
Summary of the method: as §1

[7] = tested on: RIN5F (Rat Insulinoma) cells; assay: In vitro glucose-dependent insulin secretion (RIN5F cell assay); format: cell-based; details: 16.7 mM glucose load, mean ± S.D., n = 3
Method: After trypsinization, RIN5F cells were seeded at a concentration of 0.2×10^6·cells per well, in 12 well plates.
The supernatant was collected and the insulin amount was measured by ultra sensitive Rat insulin ELISA kit (Crystal Chem, Ill.). The protein was estimated in the supernatant using Bicinchoninic Acid kit, according to the manufacturer's protocol (Sigma Aldrich, Mo.). The total insulin content obtained in Pico-gram (pg) was divided with the total protein (μg) in order to normalize for differences in cell density between wells.

[8] = 1 nM test compound (fourth concentration column, between 100 nM and 10 μM) with saturated concentration of glucagon peptide
[9] = 1 nM test compound with saturated concentration of glucagon peptide
[10] = 10 nM test compound with saturated concentration of glucagon peptide
[11] = 100 nM test compound with saturated concentration of glucagon peptide
[12] = 10 μM test compound with saturated concentration of glucagon peptide

T1 sequence (P47871 26-477): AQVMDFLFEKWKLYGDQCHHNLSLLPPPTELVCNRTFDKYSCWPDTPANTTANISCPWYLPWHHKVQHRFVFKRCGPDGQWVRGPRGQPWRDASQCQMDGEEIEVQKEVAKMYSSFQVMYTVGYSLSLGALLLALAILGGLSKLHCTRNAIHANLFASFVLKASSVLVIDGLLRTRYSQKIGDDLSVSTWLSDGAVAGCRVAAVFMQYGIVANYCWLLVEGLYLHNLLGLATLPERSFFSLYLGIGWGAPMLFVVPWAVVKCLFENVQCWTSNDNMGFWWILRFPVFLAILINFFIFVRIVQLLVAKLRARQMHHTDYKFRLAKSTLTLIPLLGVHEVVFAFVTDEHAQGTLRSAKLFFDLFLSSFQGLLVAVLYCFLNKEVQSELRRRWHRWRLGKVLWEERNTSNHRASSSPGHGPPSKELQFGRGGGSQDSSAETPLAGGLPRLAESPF
Chain of DPP IV (P27487 whole entry, species assumed): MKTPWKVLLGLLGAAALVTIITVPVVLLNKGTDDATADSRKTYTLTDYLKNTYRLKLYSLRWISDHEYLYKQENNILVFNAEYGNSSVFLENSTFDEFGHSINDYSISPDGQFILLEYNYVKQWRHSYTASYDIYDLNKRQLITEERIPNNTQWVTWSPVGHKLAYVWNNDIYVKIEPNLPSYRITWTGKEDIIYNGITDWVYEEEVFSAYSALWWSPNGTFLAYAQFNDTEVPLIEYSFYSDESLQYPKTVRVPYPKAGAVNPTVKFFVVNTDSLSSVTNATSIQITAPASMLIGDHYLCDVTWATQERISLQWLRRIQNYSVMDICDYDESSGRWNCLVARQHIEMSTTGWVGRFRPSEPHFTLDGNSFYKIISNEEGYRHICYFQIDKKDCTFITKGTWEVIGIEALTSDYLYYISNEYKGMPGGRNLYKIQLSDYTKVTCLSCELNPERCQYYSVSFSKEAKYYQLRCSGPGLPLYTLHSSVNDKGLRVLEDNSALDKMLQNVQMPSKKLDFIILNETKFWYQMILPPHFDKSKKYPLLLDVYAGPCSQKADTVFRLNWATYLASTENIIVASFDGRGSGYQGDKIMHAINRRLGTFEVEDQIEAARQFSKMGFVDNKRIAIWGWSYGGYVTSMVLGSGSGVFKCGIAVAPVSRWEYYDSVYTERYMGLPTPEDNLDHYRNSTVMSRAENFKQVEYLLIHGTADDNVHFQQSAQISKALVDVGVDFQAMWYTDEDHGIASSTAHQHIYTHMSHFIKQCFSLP

| Structure (SMILES) | % degradation in 24 h when incubated with DPP-IV enzyme [1] [%] | half-life (t1/2) in human plasma [2] | % degradation in 24 h when incubated with human plasma [2] [%] | % degradation in 24 h when incubated with liver microsomes [3] [%] | half-life at 2 μM [3] [min] | Human Glucagon receptor antagonistic activity, inhibition of cAMP production of Glucagon peptide [4, 8] [pmol/ml/μg prt] | Human Glucagon receptor antagonistic activity, inhibition of cAMP production of Glucagon peptide [4, 9] [pmol/ml/μg prt] | Human Glucagon receptor antagonistic activity, inhibition of cAMP production of Glucagon peptide [4, 10] [pmol/ml/μg prt] | Human Glucagon receptor antagonistic activity, inhibition of cAMP production of Glucagon peptide [4, 11] [pmol/ml/μg prt] | Human Glucagon receptor antagonistic activity, inhibition of cAMP production of Glucagon peptide [4, 12] [pmol/ml/μg prt] | % degradation in 24 h when incubated with simulated gastric fluid ([5]; 2 μM) [%] | half-life at 2 μM [5] [min] | % degradation in 24 h when incubated with simulated intestinal fluid ([6]; 2 μM, pH 7.5) [%] | half-life at 2 μM [6] [min] | Insulin secretion ([7]; 0.1 nM test compd.) [pg/µg/h] | Insulin secretion ([7]; 1 nM test compd.) [pg/µg/h] | Insulin secretion ([7]; 10 nM test compd.) [pg/µg/h] | also measured |
| --- | --- | --- | --- | --- | --- | --- | --- | --- | --- | --- | --- | --- | --- | --- | --- | --- | --- | --- |
| CCc1cc(OC)ccc1-c1ccc(CC(NC(=O)[C@H](CC(=O)O)NC(=O)[C@H](CO)NC(=O)[C@@H](NC(=O)[C@H](Cc2ccccc2)NC(=O)[C@@H](NC(=O)CNC(=O)[C@H](CCC(N)=O)NC(=O)[C@H](C)NC(=O)[C@@H](N)Cc2c[nH]cn2)[C@@H](C)O)[C@@H](C)O)C(=O)NC(Cc2ccc(-c3ccccc3C)nc2)C(N)=O)cc1 (single isomer, unassigned) [compound 10] | 70 | (9) h | 71 | 100 | 30 | 4 ± 0.01 | 15 ± 0.11 | 12 ± 0.13 | 8 ± 0.09 | 2 ± 0.08 | 100 | 30 | 100 | 30 | 12.7 ± 0.21 | 15.8 ± 0.33 | 29.3 ± 0.19 |  |
| CCc1cc(OC)ccc1-c1ccc(CC(NC(=O)[C@H](CC(=O)O)NC(=O)[C@H](CO)NC(=O)[C@@H](NC(=O)[C@H](Cc2ccccc2)NC(=O)[C@@H](NC(=O)CNC(=O)[C@H](CCC(N)=O)NC(=O)[C@H](C)NC(=O)[C@@H](N)Cc2c[nH]cn2)[C@@H](C)O)[C@@H](C)O)C(=O)NC(Cc2ccc(-c3ccccc3F)cc2)C(N)=O)cc1 (single isomer, unassigned) [compound 11] | 86 | (9) h | 70 | 100 | 30 | 2 ± 0.13 | 10 ± 0.03 | 8 ± 0.03 | 6 ± 0.22 | 0 | 100 | 30 | 100 | 30 | 13.1 ± 0.11 | 14.9 ± 0.17 | 28.8 ± 0.44 |  |
| CCc1cc(OC)ccc1-c1ccc(CC(NC(=O)[C@H](CC(=O)O)NC(=O)[C@H](CO)NC(=O)[C@@H](NC(=O)[C@H](Cc2ccccc2)NC(=O)[C@@H](NC(=O)CNC(=O)[C@H](CCC(N)=O)NC(=O)[C@H](C)NC(=O)[C@@H](N)Cc2c[nH]cn2)[C@@H](C)O)[C@@H](C)O)C(=O)NC(Cc2ccc(-c3ccccc3C(F)(F)F)cc2)C(N)=O)cc1 (single isomer, unassigned) [compound 12] | 72 | (9) h | 70 | 100 | 30 | 0 | 5 ± 0.09 | 3 ± 0.11 | 0 | 0 | 100 | 30 | 100 | 30 | 12.9 ± 0.14 | 15.8 ± 0.13 | 29.9 ± 0.15 |  |
| CCc1cc(OC)ccc1-c1ccc(CC(NC(=O)[C@H](CC(=O)O)NC(=O)[C@H](CO)NC(=O)[C@@H](NC(=O)C(C)(Cc2ccccc2F)NC(=O)[C@@H](NC(=O)CNC(=O)[C@H](CCC(N)=O)NC(=O)[C@H](CO)NC(=O)[C@@H](N)Cc2c[nH]cn2)[C@@H](C)O)[C@@H](C)O)C(=O)NC(Cc2ccc(-c3ccccc3C)cc2)C(N)=O)cc1 (single isomer, unassigned) [compound 21] | 76 |  | 78 | 79 | 60 | 14 ± 0.02 | 19 ± 0.03 | 17 ± 0.08 | 15 ± 0.01 | 12 ± 0.11 | 12 |  | 55 |  | 12.3 ± 0.33 | 14.1 ± 0.36 | 28.0 ± 0.16 | half-life at 2 μM ([1]; DPP IV enzyme, pH 7.8, 37° C., read-out: half-life (t1/2) with DPP-IV enzyme): 540 min; half-life at 2 μM ([2]; human, pooled human plasma, pH 7.8, 37° C., read-out: half-life (t1/2) in human plasma): 480 min; half-life (t1/2) in simulated gastric fluid ([5]; 2 μM): (8) h; half-life (t1/2) in simulated intestinal fluid ([6]; 2 μM, pH 7.5): (6) h |
